The target of one series is T1, menin (Homo sapiens, UniProt O00255).
T1 sequence (O00255 1-610): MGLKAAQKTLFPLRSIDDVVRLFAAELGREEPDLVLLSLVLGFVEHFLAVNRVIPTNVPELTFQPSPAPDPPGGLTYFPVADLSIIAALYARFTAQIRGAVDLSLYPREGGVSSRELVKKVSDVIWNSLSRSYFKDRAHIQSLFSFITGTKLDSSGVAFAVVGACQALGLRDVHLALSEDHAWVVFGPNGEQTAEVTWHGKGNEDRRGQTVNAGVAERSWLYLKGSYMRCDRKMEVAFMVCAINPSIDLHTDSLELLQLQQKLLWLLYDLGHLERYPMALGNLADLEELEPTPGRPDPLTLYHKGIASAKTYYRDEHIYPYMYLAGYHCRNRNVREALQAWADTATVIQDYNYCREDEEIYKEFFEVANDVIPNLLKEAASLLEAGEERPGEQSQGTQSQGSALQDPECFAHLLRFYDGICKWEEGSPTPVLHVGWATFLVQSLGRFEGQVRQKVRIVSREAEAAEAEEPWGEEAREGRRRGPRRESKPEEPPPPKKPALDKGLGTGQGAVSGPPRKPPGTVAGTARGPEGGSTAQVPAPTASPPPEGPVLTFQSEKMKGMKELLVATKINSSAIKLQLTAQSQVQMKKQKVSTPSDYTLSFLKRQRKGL
The experiment in a line: Binding to the MLL1 binding pocket on menin. From the text:
(§1) Menin inhibitor (e.g., Compound A or a pharmaceutically acceptable salt thereof) disrupts the interaction between menin and the MLL1 fusion proteins which is required for leukemogenic activity, thus impairing expression of critical oncogenes, causing growth arrest and the inhibition of cellular proliferation. Small molecule inhibitors of the menin-MLL interaction have been reported.

The subject of series [1] is cells harboring MLLr fusions. The experiment in a line: Activity in cells harboring MLLr fusions. The format is cell-based.
Source text: as §1

A short description of series [2]: Excipient compatibility study with Compound A monocitrate monohydrate. It is filed as physicochemical. As for the experimental part:
The list of excipients for this study was restricted to those already being used in the tablet formulation provided in Example 7. OpaDry Orange was further added.
Binary mixtures of Compound A monocitrate monohydrate and each excipient, were placed in closed 20 mL borosilicate glass vials (Tables 45-47). The vials were stored at 25° C./60% RH, 30° C./65% RH, and 40° C./75% RH over 8 weeks and later analyzed using methods for Appearance, Compound A Assay, Related Substances, XRPD, and Differential Scanning calorimetry (DSC).

The nature of series [3]: Pharmacokinetics in patients with relapsed or refractory acute leukemia. The format is in vivo, human. Particulars: for Tmax: read-out: Tmax Median; for AUC(0-t): read-out: AUC0-12 h. From the text:
The pharmacokinetics of Compound A were characterized in patients with relapsed or refractory acute leukemia following single and multiple oral administration of Compound A with or without strong CYP3A4 inhibitors. Steady-state pharmacokinetic parameters are presented as geometric mean [geometric coefficient of variation (% CV)] unless otherwise specified.

A further series concerns the target T2, CYP3A4 (Homo sapiens, UniProt P08684).
T2 construct: from tissue
The experiment in a line: Drug interaction studies (clinical studies). The format is in vivo. Particulars: for AUC increase / Cmax increase: multiple doses. From the text: Strong CYP3A4 Inhibitors: Compound A AUC and Cmax is increased by 2-fold following concomitant use of multiple doses of Compound A with certain azole antifungals that are strong CYP3A4 inhibitors (i.e., posaconazole, itraconazole, and voriconazole).

Series [4] is described as follows: Aqueous solubility of Compound A salts. The format is physicochemical. Particulars: across the physiological pH range. As for the experimental part:
Solubility of Compound A citrate was determined in 3 different types of matrices: unbuffered water, citrate-buffered solutions from pH 3 to 6, and formulations consisting of citrate, advantame, methylparaben sodium, potassium sorbate, and sodium chloride at pH ranging from 3 to 6. Solubility in unbuffered water at ambient temperature was 38.5 mg/mL.
The target pH was reassessed when the F3 formulation was developed. Compound A citrate solubility studies were performed initially in simple buffered solutions to assess solubility trends as a function of pH. […] The target concentration of Compound A was therefore changed to 40 mg/mL as a compromise between drug substance and preservatives dissolution rate and stability.

A short description of series [5]: Polymorph screening of Compound A citrate salt, form conversion (XRPD, DSC/TGA, DVS). The format is physicochemical. Particulars: drying of wet cake (Form B); presence of water (Form C).
Series [6] can be described thus: Slurry and solvent evaporation polymorph experiments of Compound A citrate salt (Table 9). Particulars: upon drying. It is filed as physicochemical. The protocol:
Based on the approximate solubility data of Compound A citrate salt, 18 polymorph experiments were started at RT with stirring (Table 9). Wet cakes from the slurry experiments were analyzed after 5 days of stirring. Wet cake XRPD patterns were checked and materials showing no pattern change were heated from RT to 50° C.
Procedure • 1) Slurry at RT: ˜35 mg citrate salt was slurried in different solvents in 4 mL vials using a magnetic stirrer at RT. The solids in slurry were characterized by XRPD after 3-5 days. • 2) Slurry at 50° C.: Slurries with no change in wet cake XRPD pattern when compared to starting material were heated from RT to 50° C. Samples were analyzed after 2-3 days of stirring.
Wet cake samples were isolated and kept at 25° C. for 2 h for drying. After drying, samples were analyzed by XRPD.

Series [7] is described as follows: Single crystal structure, solvate exchange under ambient conditions. It is filed as physicochemical. Particulars: after exposure to ambient conditions, analyzed at 273 K. The protocol:
Plate-like crystals (FIG. 9) were grown by recrystallization from methanol of Compound A monocitrate monomethanolate by evaporation (prepared from methanol/water 90:10 v/v).

Series [8] is described as follows: Form C characterization and relative stability of the forms. It is filed as physicochemical. Particulars: ambient conditions.
Source text: Moreover, HNMR studies validated a 1:1 stoichiometry between the freebase and acid.
Series [9] deals with NPM1c mutant AML patient-derived xenograft models. Particulars: orally active menin inhibitor; cited from earlier work.
Another series relates to NPM1c cells. Particulars: cited from earlier work.
The mark [10] stands for this setting: 2 pediatric patients, 160 mg/m^2 without strong CYP3A4 inhibitors.
Setting [11] is: human, plasma, oral, 163 mg twice daily with strong CYP3A4 inhibitors, steady-state, geometric mean.
Setting [12] is: human, plasma, oral, 276 mg twice daily without strong CYP3A4 inhibitors, steady-state, geometric mean.
The mark [13] stands for this setting: low fat meal, approximately 400-500 calories, 25% of calories from fat.
[14] abbreviates: single dose of radiolabeled Compound A 276 mg, adult patients.
Setting [15] is: with cobicistat (strong CYP3A4 inhibitor).
[16] abbreviates: with strong CYP3A4 inhibitor azole antifungals (posaconazole, itraconazole, voriconazole).

Each structure is given as a SMILES string. Read-outs that look alike come from different tables or passages of the source.

T2 sequence (P08684 whole entry): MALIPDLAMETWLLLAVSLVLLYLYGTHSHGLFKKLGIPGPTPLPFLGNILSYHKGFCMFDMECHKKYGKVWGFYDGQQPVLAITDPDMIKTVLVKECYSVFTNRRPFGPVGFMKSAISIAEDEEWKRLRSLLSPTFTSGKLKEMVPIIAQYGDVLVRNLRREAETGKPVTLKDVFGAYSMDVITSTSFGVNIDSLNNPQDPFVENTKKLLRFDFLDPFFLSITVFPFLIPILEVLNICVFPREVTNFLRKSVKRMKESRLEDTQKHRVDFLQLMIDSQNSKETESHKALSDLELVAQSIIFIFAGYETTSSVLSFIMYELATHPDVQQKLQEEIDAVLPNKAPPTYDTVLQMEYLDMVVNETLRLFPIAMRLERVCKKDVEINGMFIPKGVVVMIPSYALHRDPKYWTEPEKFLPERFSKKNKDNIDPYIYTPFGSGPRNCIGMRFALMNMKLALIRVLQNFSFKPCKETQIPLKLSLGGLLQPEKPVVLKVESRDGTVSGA

As for `CCN(C(=O)c1cc(F)ccc1Oc1cncnc1N1CC2(CCN(C[C@H]3CC[C@H](NS(=O)(=O)CC)CC3)CC2)C1)C(C)C` [Compound A, trans N-ethyl-2-((4-(7-((4-(ethylsulfonamido)cyclohexyl)methyl)-2,7-diazaspiro[3.5]nonan-2-yl)pyrimidin-5-yl)oxy)-5-fluoro-N-isopropylbenzamide], the “binding affinity to the MLL1 binding pocket on menin” value at menin is listed as “high affinity”. Moreover, the “activity in cells harboring MLLr fusions” value in series [1] is “displays activity across a range of cells harboring MLLr fusions”. Further, the “Assay (%) Results” value in [2] (8 week, 25° C./60% RH closed) worked out at 100.3%; in series [2] (8 week, 30° C./65% RH closed), 101.4%; in series [2] (8 week, 40° C./75% RH closed), 100.0%; in [2] (Initial (t = 0), closed glass vials) it was 98.8%. In addition, the “Apparent Clearance” value turned out to be 7 L/h in series [3] (163 mg twice daily with strong CYP3A4 inhibitors, steady-state, geometric mean) and 27 L/h in [3] (276 mg twice daily without strong CYP3A4 inhibitors, steady-state, geometric mean). Moreover, the “AUC0-tau, individual patients” value in [3] (setting [10]) turned out to be 16300 ng·h/mL. Further, the “steady-state Cmax, individual patients” value in series [3] (setting [10]) is 4790 ng/mL. The “Dose Proportionality” value in series [3] (dosage range of 113 mg to 339 mg) was “Dose proportional increases in Cmax and AUC0-12 h”. Further, the “Effect of body weight and BSA on pharmacokinetics” value in series [3] (higher exposures with lower body weight and BSA) is on record as “significant effect”. In addition, in series [3] (human, in vivo), the “Metabolism: Primary Pathway” value is “CYP3A4”. In addition, the fraction unbound in [3] (human, in vivo, independent of concentration, read-out: Protein Binding (converted)) is 0.1. For the same compound, the AUC turned out to be 14600 ng·h/mL in series [3] (human, plasma, oral, 95 mg/m2, pediatric patients, 95 mg/m^2 with strong CYP3A4 inhibitors, read-out: steady-state AUC0-tau, geometric mean (geometric CV %)) and 25600 ng·h/mL in [3] (human, plasma, oral, 160 mg/m2, 2 pediatric patients, 160 mg/m^2 without strong CYP3A4 inhibitors, read-out: AUC0-tau, individual patients). In addition, the Cmax in series [3] (human, plasma, oral, 95 mg/m2, pediatric patients, 95 mg/m^2 with strong CYP3A4 inhibitors, read-out: steady-state Cmax, geometric mean (geometric CV %)) was determined as 3140 ng/mL; in series [3] (human, plasma, oral, 160 mg/m2, 2 pediatric patients, 160 mg/m^2 without strong CYP3A4 inhibitors, read-out: steady-state Cmax, individual patients), 4950 ng/mL; in series [3] (human, plasma, oral, 163 mg, 163 mg twice daily with strong CYP3A4 inhibitors, steady-state, geometric mean, patients, read-out: Cmax), 3220 ng/mL; in series [3] (human, plasma, oral, 276 mg, 276 mg twice daily without strong CYP3A4 inhibitors, steady-state, geometric mean, patients, read-out: Cmax), 2050 ng/mL. The time to peak (Tmax) in series [3] (human, plasma, oral, 163 mg twice daily with strong CYP3A4 inhibitors) is 2 h; in [3] (human, plasma, oral, 276 mg twice daily without strong CYP3A4 inhibitors) it was 1 h. Besides, the half-life in [3] (setting [11]) is 450 min; in [3] (setting [12]) it was 216 min. Besides, the AUC(0-t) in [3] (setting [11]) came out at 22600 ng·h/mL; in series [3] (setting [12]), 10200 ng·h/mL. Also, the Vd in series [3] (human, plasma, oral, steady-state, geometric mean (% CV), read-out: Apparent Volume of Distribution) was 78 L. Moreover, the “AUC decrease with low fat meal” value in series [3] (setting [13]) came to 12%. Moreover, the “Cmax decrease with low fat meal” value in [3] (setting [13]) is recorded as 27%. Moreover, the “Excretion in Feces” value in series [3] (setting [14]) is ~49%. Also, the “Excretion in Feces, unchanged” value in series [3] (setting [14]) came out at 7%. The “Excretion in Urine” value in series [3] (setting [14]) is on record as ~27%. Also, the “Excretion in Urine, unchanged” value in series [3] (setting [14]) was found to be 7%. The Accumulation in [3] (steady-state) is 2-fold. Besides, in series [3] (twice daily oral dosing, patients), the “Time to Steady-State” value was in the range of 2 to 3 days. The figures for the AUC increase on CYP3A4 (setting [15]) and at CYP3A4 (setting [16]) were 2.5 fold and 2 fold, respectively. Moreover, the Cmax increase at CYP3A4 (setting [15]) amounted to 2.5 fold; on CYP3A4 (setting [16]), 2 fold. The Differences in pharmacokinetics entry on CYP3A4 (with fluconazole (moderate CYP3A4 inhibitor)) and at CYP3A4 (with isavuconazole (moderate CYP3A4 inhibitor)) was “No clinically significant differences” throughout. The solubility entry in series [4] is “high solubility”.
Regarding `CCN(C(=O)c1cc(F)ccc1Oc1cncnc1N1CC2(CCN(C[C@H]3CC[C@H](NS(=O)(=O)CC)CC3)CC2)C1)C(C)C.CO.O=C(O)CC(O)(CC(=O)O)C(=O)O` [Form B], the “stability of polymorphic form / conversion” value in series [5] is “unstable form and converts to Form A upon drying”. Besides, the results for the Form conversion entry in [6] and in series [8] were “converts to Form A upon drying” and “transitions to Form A”, respectively. For the same compound, in series [7], the “Solvate exchange of single crystal” value is on record as “transformed into a monohydrate”.
As for `CNc1nc(NC2CCN(Cc3ccc4c(cc(C#N)n4C[C@H](C)N4CCN(S(C)(=O)=O)CC4)c3C)CC2)c2cc(CC(F)(F)F)sc2n1` [KO-539], the anti-leukemic activity entry in series [9] was “robust anti-leukemic activity”.
Turning to `Cc1c(CN2CCC(Nc3ncnc4sc(CC(F)(F)F)cc34)CC2)ccc2c1cc(C#N)n2Cc1cn[nH]c1` [MI-503], the “effect on HOXA/MEIS1 transcription program in NPM1c cells” value in the series on NPM1c cells is “suppress the HOXA/MEIS1 transcription program in NPM1c cells, leading to growth arrest, terminal differentiation and cell death”.

As a reminder, the Cmax is the highest concentration seen after dosing. Usually Tmax stands for the time at which the peak concentration occurs. Usually half-life stands for how long it takes for the measured level to halve. Read a high half-life as slow loss.

The record behind these values is patent US20250170132A1, “SALTS AND POLYMORPHIC FORMS OF MENIN INHIBITORS AND PHARMACEUTICAL COMPOSITIONS THEREOF” (Syndax Pharmaceuticals, Inc., priority 2023, published 2025).
